Laboratory results: patent publication US20250171400A1, “AZA-HETEROCYCLYL CARBOXAMIDE AND RELATED COMPOUNDS AND THEIR USE IN TREATING MEDICAL CONDITIONS” (X-BIOTIX THERAPEUTICS, INC., priority 2021, published 2025)
Values after ≈ are worked out from the molar mass of the structure shown. Where two headings read alike, the source gives them in different places.

What was measured:
E. coli LpxC = E. coli LpxC (Escherichia coli (strain K12), UniProt P0A725); assay: in vitro substrate deacetylation assay for inhibition of LpxC (ADDA analysis); format: biochemical; settings: 5 nM E. coli LpxC, 2.5 μM substrate, 1 hour at room temperature
Sequence of E. coli LpxC (P0A725 whole entry): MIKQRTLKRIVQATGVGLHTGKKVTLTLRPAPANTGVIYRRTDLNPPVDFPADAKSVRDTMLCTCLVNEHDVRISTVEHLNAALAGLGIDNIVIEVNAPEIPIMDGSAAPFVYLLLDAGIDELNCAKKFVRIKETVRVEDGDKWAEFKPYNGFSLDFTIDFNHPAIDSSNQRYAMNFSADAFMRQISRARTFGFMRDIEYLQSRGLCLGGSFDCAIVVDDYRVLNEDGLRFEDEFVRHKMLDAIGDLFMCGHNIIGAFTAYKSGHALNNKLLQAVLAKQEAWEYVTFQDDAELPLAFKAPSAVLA
Protocol: (§1) Exemplary compounds from the above Examples were tested for ability to inhibit LpxC activity using an in vitro substrate deacetylation assay with ADDA™ analysis. Assay procedures and results are described below.
Dilutions of test compound were pre-incubated with 5 nM P. aeruginosa or E. coli LpxC for 10 minutes at room temperature in 50 mM NaH2PO4, 500 mM sucrose, 0.2 mg/mL BSA, pH 7.2 and <1% DMSO. Reactions were initiated by the addition of 2× substrate (UDP-3-O—(R-3-hydroxydecanoyl)-N-acetylglucosamine, Carbosynth Ltd, UK, for P. aeruginosa LpxC and UDP-3-O—(R-3-hydroxymyristoyl)-N-acetylglucosamine, BOC Sciences, USA, for E. coli LpxC), in 50 mM NaH2PO4, 0.5 mg/mL BSA, pH 7.2, to a final concentration of 2.5 μM. Reactions proceeded for 1 hour at room temperature prior to quenching with and equal volume of 2% acetic acid.
For ADDA™ analysis, an aliquot of assay sample was withdrawn from each well of the 384-well plate and applied to a Hypercarb cartridge (Optimize Technologies, USA) under conditions designed to retain analytes of interest. Analytes were eluted using 1:1:2 acetone:acetonitrile:water containing 5 mM ammonium acetate then analysed by triple-quadrupole mass spectrometry. Mass spectrometry was carried out using electrospray ionization in negative ion mode. Daughter ion peaks representing detected substrate (P. aeruginosa: parent Q1 mass=775.8 amu, daughter Q3 mass=384.7 amu E. coli: parent Q1 mass=833.0 amu, daughter Q3 mass=385.0 amu, collision energy=analyte specific, dwell time=50 ms) were identified using a multiple-reaction monitoring protocol.
Total activity (0% inhibition) was obtained from reactions containing no compound, and 100% inhibition is defined as reactions in the presence of 1 μM CHIR-090 (N-[(1S,2R)-2-hydroxy-1-[(hydroxyamino)carbonyl]propyl]-4-[2-[4-(4-morpholinylmethyl)phenyl]ethynyl]-benzamide). For IC50 determinations, peak areas of the substrate and product were compared to compute the proportion of substrate reacted by the LpxC enzyme at each compound concentration. The fractional activity was converted to percentage inhibition and plotted against compound concentration in ActivityBase™ and fit using a four-parameter logistic using non-linear regression to yield the IC50 value.

P. aeruginosa LpxC = P. aeruginosa LpxC (Pseudomonas aeruginosa (strain ATCC 15692 / DSM 22644 / CIP 104116 / JCM 14847 / LMG 12228 / 1C / PRS 101 / PAO1), UniProt P47205); assay: biochemical; format: biochemical; settings: 5 nM P. aeruginosa LpxC, 2.5 μM substrate, 1 hour at room temperature
Protocol: as §1
For ADDA™ analysis, an aliquot of assay sample was withdrawn from each well of the 384-well plate and applied to a Hypercarb cartridge (Optimize Technologies, USA) under conditions designed to retain analytes of interest. Analytes were eluted using 1:1:2 acetone:acetonitrile:water containing 5 mM ammonium acetate then analysed by triple-quadrupole mass spectrometry. Mass spectrometry was carried out using electrospray ionization in negative ion mode.
For IC50 determinations, peak areas of the substrate and product were compared to compute the proportion of substrate reacted by the LpxC enzyme at each compound concentration.

[1] = system: E. coli BW25113 isogenic mutant deficient in acrA mediated efflux; assay: broth microdilution minimum inhibition concentration assay; format: cell-based; settings: Escherichia coli, BW25113, read-out: E. coli KO MIC
Protocol: (§2) Exemplary compounds from the above Examples were tested to determine their minimum inhibitory concentration (MIC) for exemplary strains of Eschericia and Pseudomonas bacteria using broth microdilution methods. Assay procedures and results are described below.
(§3) Broth microdilution assays were conducted according to Clinical and Laboratory Standards Institute guidelines (CLSI, M07-A11: Clinical and Laboratory Standards Institute. Methods for Dilution Antimicrobial Susceptibility Tests for Bacteria that Grow Aerobically; Approved Standard—11th Edition. Wayne, PA: CLSI, 2018.). Briefly, a 0.5 McFarland standard suspension was made from bacterial isolates on non-selective, solid media. The inocula were adjusted to give a bacterial concentration of 1×10^6 CFU/mL. Serial doubling-dilutions of each compound were prepared in cation-adjusted Mueller-Hinton broth (Sigma-Aldrich) in 96-well microdilution plates. A 50 μL aliquot of the inoculum was added to each microdilution plate and, within 15 minutes, incubated at 37° C. in air for 16-20 h. […] The test was controlled by the determination of piperacillin MIC against both E. coli ATCC 25922 and P. aeruginosa ATCC 27853 and ensuring accordance with the ranges published in CLSI supplementary document M100 (CLSI, M100Ed29: Clinical and Laboratory Standards Institute. Performance Standards for Antimicrobial Susceptibility Testing, 29th Edition. Wayne, PA: CLSI, 2018.).
(§4) Multiple enterobacteriaceae strains were tested, including E. coli ATCC 25922 and K. pneumoniae ATCC 43816. WT E. coli BW25113 was tested with an isogenic mutant deficient in acrA mediated efflux by clean deletion. WT P. aeruginosa PAO1 was tested with an isogenic mutant deficient in MexA mediated efflux by clean deletion.
(§5) Experimental results are provided in Table 4, which provides MIC values for wild-type E. coli BW25113 (“E. coli WT MIC”), an isogenic mutant deficient in acrA mediated efflux by clean deletion (“E. coli KO MIC”), wild-type P. aeruginosa PAO1 (“P. aeruginosa WT MIC”), and an isogenic mutant deficient in MexA mediated efflux by clean deletion (“[…]”).

[2] = system: P. aeruginosa PAO1 isogenic mutant deficient in MexA mediated efflux; assay: as above; format: cell-based; settings: Pseudomonas aeruginosa, PAO1, read-out: P. aeruginosa KO MIC
Protocol: as §2, §3, §4, §5

[3] = system: wild-type E. coli BW25113; assay: as above; format: cell-based; settings: Escherichia coli; wild-type E. coli BW25113, 37° C. 16-20 h; read-out: E. coli WT MIC
Protocol: as §2, §3, §4, §5

[4] = system: wild-type P. aeruginosa PAO1; assay: as above; format: cell-based; settings: Pseudomonas aeruginosa
Protocol: as §2, §3, §4, §5

[5] = PAO1, read-out: P. aeruginosa WT MIC
[6] = wild-type P. aeruginosa PAO1, 37° C. 16-20 h, read-out: P. aeruginosa WT MIC

In the case of `C[C@@H](CN)C(=O)N1C[C@H](NC(=O)[C@@H]2C[C@H](F)CN2)C[C@@H]1C(=O)NCc1ccc(C#CC#CC2CC2)cc1` [Example 9S], the IC50 (E. coli LpxC) is reported as 0.5 to 2.5 µM, the IC50 (P. aeruginosa LpxC) is reported as 0.05 to 0.1 µM and the MIC [1] is reported as greater than 100 µM. It also gave an MIC [2] greater than 100 µM, an MIC [3] greater than 100 µM and an MIC [4, 5] greater than 100 µM.
With `CC(C)C(=O)N1C[C@H](NC(=O)[C@@H]2CC(F)(F)CN2)C[C@@H]1C(=O)NCc1ccc(C#Cc2ccc(CN3CCOCC3)cc2)cc1` [Example 9F] the IC50 (E. coli LpxC) was 0.5 to 2.5 µM, the IC50 (P. aeruginosa LpxC) was 0.05 to 0.1 µM and the MIC [1] was 20 to 100 µM (≈ 12.4 to 62.2 µg/mL). It also gave an MIC [2] of 20 to 100 µM (≈ 12.4 to 62.2 µg/mL), an MIC [3] greater than 100 µM and an MIC [4, 5] greater than 100 µM.
Compound `COC(=O)N1C[C@H](NC(=O)[C@@H]2C[C@H](F)CN2)C[C@@H]1C(=O)NCc1ccc(C#CC#CC2CC2)cc1` [Example 9R] has an IC50 (E. coli LpxC) of 0.5 to 2.5 µM, an IC50 (P. aeruginosa LpxC) of less than 0.05 µM and an MIC [1] of less than 20 µM. It also gave an MIC [2] of less than 20 µM, an MIC [3] greater than 100 µM and an MIC [4, 6] greater than 100 µM.
With `CC(C)C(=O)N1C[C@H](NC(=O)[C@H]2NCC[C@@H]2O)C[C@@H]1C(=O)NCc1ccc(C#CC#CC2CC2)cc1` [Example 9AB] the IC50 (E. coli LpxC) was 0.5 to 2.5 µM, the IC50 (P. aeruginosa LpxC) was less than 0.05 µM and the MIC [1] was 20 to 100 µM (≈ 9.81 to 49.1 µg/mL). For the same compound, the MIC [2] was 20 to 100 µM (≈ 9.81 to 49.1 µg/mL), the MIC [3] was greater than 100 µM and the MIC [4, 5] was greater than 100 µM.
For `C[C@H](CN)C(=O)N1C[C@H](NC(=O)[C@@H]2C[C@H](F)CN2)C[C@@H]1C(=O)NCc1ccc(C#CC#CC2CC2)cc1` [Example 9N], the IC50 (E. coli LpxC) was 0.5 to 2.5 µM, the IC50 (P. aeruginosa LpxC) was 0.05 to 0.1 µM and the MIC [1] was greater than 100 µM. For the same compound, the MIC [2] was greater than 100 µM, the MIC [3] was greater than 100 µM and the MIC [4, 5] was greater than 100 µM.
`CC(C)C(=O)N1C[C@H](NC(=O)[C@@H]2C[C@H](F)CN2)C[C@@H]1C(=O)NCc1ccc(C#CC2CC2)cc1` [Example 9BG] gave an IC50 (E. coli LpxC) greater than 10 µM, an IC50 (P. aeruginosa LpxC) of 0.1 to 1 µM and an MIC [1] greater than 100 µM. For the same compound, the MIC [2] was greater than 100 µM, the MIC [3] was greater than 100 µM and the MIC [4, 5] was greater than 100 µM.
Compound `NCCCC(=O)N1C[C@H](NC(=O)[C@@H]2C[C@H](F)CN2)C[C@@H]1C(=O)NCc1ccc(C#CC#CC2CC2)cc1` [Example 9O] has an IC50 (E. coli LpxC) of 2.5 to 10 µM, an IC50 (P. aeruginosa LpxC) of 0.05 to 0.1 µM and an MIC [1] greater than 100 µM. It also gave an MIC [2] greater than 100 µM, an MIC [3] greater than 100 µM and an MIC [4, 5] greater than 100 µM.
Work on `CC(C)C(=O)N1C[C@H](NC(=O)[C@@H]2C[C@H](C#N)CN2)C[C@@H]1C(=O)NCc1ccc(C#CC#CC2CC2)cc1` [Example 9AE] yielded an IC50 (E. coli LpxC) of 0.5 to 2.5 µM, an IC50 (P. aeruginosa LpxC) of less than 0.05 µM and an MIC [1] greater than 100 µM. For the same compound, the MIC [2] was 20 to 100 µM (≈ 9.99 to 50 µg/mL), the MIC [3] was greater than 100 µM and the MIC [4, 6] was greater than 100 µM.
With `CNCCC(=O)N1C[C@H](NC(=O)[C@@H]2C[C@H](F)CN2)C[C@@H]1C(=O)NCc1ccc(C#CC#CC2CC2)cc1` [Example 9Q] the IC50 (E. coli LpxC) was 2.5 to 10 µM, the IC50 (P. aeruginosa LpxC) was 0.05 to 0.1 µM and the MIC [1] was greater than 100 µM. The MIC [2] was greater than 100 µM, the MIC [3] was greater than 100 µM and the MIC [4, 5] was greater than 100 µM.
`O=C(N[C@@H]1C[C@H](C(=O)NCc2ccc(C#Cc3ccc(CN4CCOCC4)cc3)cc2)N(C(=O)OC2CC2)C1)[C@@H]1C[C@H](F)CN1` [Example 9AW] was tested, and the IC50 (E. coli LpxC) was less than 0.5 µM, the IC50 (P. aeruginosa LpxC) was less than 0.05 µM and the MIC [1] was less than 20 µM. The MIC [2] was less than 20 µM, the MIC [3] was greater than 100 µM and the MIC [4, 6] was greater than 100 µM.
